Measurements taken from patent US20250129012A1, “ANTI-INFLAMMATORY AND ANALGESIC COMPOUNDS AND USE THEREOF” (JIANGSU ATOM BIOSCIENCE AND PHARMACEUTICAL CO., LTD., priority 2021, published 2025).
Where two headings read alike, the source gives them in different places. Marks after values point to notes of the source that are not given here.

How the values were obtained:
Type in all cases: in vivo, SD rats
[1] = system: gouty arthritis rats (sodium urate, right ankle and knee joint cavities); experiment: Pharmacodynamics experiment B on gouty arthritis rats: ankle swelling rate; settings: for change in vivo at 0.6 mg/kg / change in vivo at 1.2 mg/kg: Rattus norvegicus, po, read-out: Swelling rate (ankle)
In short: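 Male SD rats dosed by gavage at 0.6 mg/kg (0.5% CMC-Na suspension) daily for 7 days before and 3 days after injection of 0.2 mL sodium urate solution into right ankle and knee joints. Ankle circumference measured before and 2-48 h after modeling; swelling rate = swelling degree/baseline ×100%, mean values.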

[2] = system: gouty arthritis in rats (urate crystals, left ankle joint); experiment: Pharmacodynamics experiment A on gouty arthritis in rats: pain score; parameters: Pain score: scale not given here; settings: 0.6 mg/kg gavage; for Pain score: Mean ± SEM
Method: (§1) Compounds 2, 17, 26 and 27 were prepared by grinding with 0.5% CMC-Na into a suspension of the corresponding concentration (0.06 mg/mL) for gavage before administration, and the volume of administration was 10 mL/kg. […] Before use, 0.5% CMC-Na was used for grinding and prepared into a suspension of the corresponding concentration (0.06 mg/mL) for gavage, and the volume of drug administered was 10 mL/kg.
(§2) Each group of subjects was prepared into a suspension of the corresponding concentration, and the administration volume was 10 mL/kg.
(§3) The crystalline arthritis model was prepared by intra-articular injection of urate crystals (40 mg/mL, in the left ankle joint of each rat). Different doses of the test drug were given separately by gavage administration. The day of administration was defined as day 1 of the experiment, and the drug was administered once a day for 10 consecutive days (pre-administration of the drug for 7 days prior to modeling, modeling on day 8, and continuation of the drug for 3 days). The experiment ended on day 10.
The pain level was scored using the flexion and extension joint pain test scoring method at the same time point.
(§4) The data obtained from the experiment were statistically analyzed using IBM SPSS Statistics 22.0. All measurements were expressed as Mean±S.E.M s. The data were analyzed using SPSS 22.0 statistical software and variance chi-square test was performed on the parameters.

[3] = system: gouty arthritis in rats (urate crystals, left ankle joint); experiment: Pharmacodynamics experiment A on gouty arthritis in rats: gait score; parameters: Gait Score: scale not given here; settings: 0.6 mg/kg gavage; for Gait Score: Mean ± SEM
Method: as §1, §2, §3
The degree of lameness of the modeled joints was observed and scored at the same time point.
as §4

IL-1β = experiment: Inflammatory factor experiment B: IL-1β in knee synovial tissue (ELISA)
[4] = system: gouty arthritis rats (sodium urate, right ankle and knee joint cavities); experiment: Pharmacodynamics experiment B on gouty arthritis rats: gait score; settings: for Gait Score: mean
In short: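 Male SD rats (180-220 g) received test compounds by gavage as 0.5% CMC-Na suspensions, once daily for 7 days before modeling and for 3 days afterward. Gouty arthritis was induced by injecting 0.2 mL sodium urate solution into the right ankle and knee joint cavities. Gait was graded 0-3 using modified Coderre criteria, and group mean scores were compared with the model group by ANOVA-Dunnett T-test (P<0.05).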

[5] = compounds 0.6 mg/kg, colchicine 0.6 and 1.2 mg/kg
[6] = time points after modeling, P<0.05 or P<0.01

`COc1cc2c(c(OC)c1OC)-c1ccc(OC)c(=O)cc1[C@@H](NC(C)=O)CC2` [colchicine, reference compound] gave a change in vivo at 0.6 mg/kg ([1]; 2 h) of 10.5%, a change in vivo at 1.2 mg/kg ([1]; 2 h) of 8.97% and a change in vivo at 0.6 mg/kg ([1]; 4 h) of 15.7%. It also gave a change in vivo at 1.2 mg/kg ([1]; 4 h) of 14.9%, a change in vivo at 0.6 mg/kg ([1]; 8 h) of 20.6% and a change in vivo at 1.2 mg/kg ([1]; 8 h) of 17.2%. The change in vivo at 0.6 mg/kg ([1]; 10 h) was 23.4%, the change in vivo at 1.2 mg/kg ([1]; 10 h) was 19.4% and the change in vivo at 0.6 mg/kg ([1]; 24 h) was 24.4%. It also gave a change in vivo at 1.2 mg/kg ([1]; 24 h) of 19.8%, a change in vivo at 0.6 mg/kg ([1]; 48 h) of 12.1% and a change in vivo at 1.2 mg/kg ([1]; 48 h) of 9.29%. The “Ankle swelling rate versus model group, in words” value [1, 5] was “significantly (P<0.01) reduced”, the “Pain versus model group, in words” value [2, 6] was “improved the pain at 2 h, 8 h, 24 h, and 48 h” and the Pain score ([2]; 2 h after modeling) was 3.30 ± 0.60. The Pain score ([2]; 4 h after modeling) was 2.90 ± 0.71, the Pain score ([2]; 8 h after modeling) was 3.20 ± 0.61 and the Pain score ([2]; 10 h after modeling) was 2.60 ± 0.70. It also gave a Pain score ([2]; 24 h after modeling) of 1.40 ± 0.58, a Pain score ([2]; 48 h after modeling) of 0.80 ± 0.44 and a Pain score ([2]; before modeling) of 0.00 ± 0.00. For the same compound, the “Gait versus model group, in words” value [3, 6] was “improved the gait of rats at 2 h, 24 h, and 48 h after modeling”, the Gait Score ([3]; 2 h after modeling) was 1.10 ± 0.10 and the Gait Score ([3]; 4 h after modeling) was 1.10 ± 0.10. It also gave a Gait Score ([3]; 8 h after modeling) of 1.30 ± 0.15, a Gait Score ([3]; 10 h after modeling) of 1.30 ± 0.21 and a Gait Score ([3]; 24 h after modeling) of 1.00 ± 0.00. For the same compound, the Gait Score ([3]; 48 h after modeling) was 1.00 ± 0.00, the Gait Score ([3]; before modeling) was 0.00 ± 0.00 and the inhibition in vivo at 0.6 mg/kg (IL-1β; Rattus norvegicus, po, synovial tissue of knee joints, 48 h after modeling, dose 0.6 mg/kg, read-out: IL-1β percentage decrease %) was 74.2%. For the same compound, the inhibition in vivo at 1.2 mg/kg (IL-1β; Rattus norvegicus, po, synovial tissue of knee joints, 48 h after modeling, dose 1.2 mg/kg (high dose group), read-out: IL-1β percentage decrease %) was 63.1%, the “IL-1β level after modeling, in words” value (IL-1β; [5]) was “reduced IL-1β in synovial tissue” and the “Gait Score” value ([4]; 2 h, dose 0.6 mg/kg gavage) was 0. The “Gait Score” value ([4]; 2 h, dose 1.2 mg/kg gavage (high dose group)) was 0, the “Gait Score” value ([4]; 4 h, dose 0.6 mg/kg gavage) was 0.02* and the “Gait Score” value ([4]; 4 h, dose 1.2 mg/kg gavage (high dose group)) was 0**. The “Gait Score” value ([4]; 8 h, dose 0.6 mg/kg gavage) was 0.24*, the “Gait Score” value ([4]; 8 h, dose 1.2 mg/kg gavage (high dose group)) was 0.1** and the “Gait Score” value ([4]; 10 h, dose 0.6 mg/kg gavage) was 0.16**. For the same compound, the “Gait Score” value ([4]; 10 h, dose 1.2 mg/kg gavage (high dose group)) was 0.18**, the “Gait Score” value ([4]; 24 h, dose 0.6 mg/kg gavage) was 0.02* and the “Gait Score” value ([4]; 24 h, dose 1.2 mg/kg gavage (high dose group)) was 0*. The “Gait Score” value ([4]; 48 h, dose 0.6 mg/kg gavage) was 0.02, the “Gait Score” value ([4]; 48 h, dose 1.2 mg/kg gavage (high dose group)) was 0 and the “Gait versus model group, in words” value [4, 5] was “significantly improved the gait of rats”.
